Experiments:
[1] = species: Homo sapiens; assay: Metabolism (NADH oxidation) by recombinant human NAD(P)H: quinone oxidoreductase (NQO1) is evaluated.; assay type: ADME
[2] = Selectivity ratio against NSCLC H460 and NSCLC H596 was evaluated; assay type: functional; set-up: reference not given here
[3] = system: NCI-H460; assay: Cytotoxic activity against non-small cell lung cancer cell line (NSCLC) H460 was determined by using MTT colorimetric assay.; assay type: functional, cell-based; conditions: Homo sapiens
[4] = system: NCI-H596; assay: Cytotoxic activity against non-small cell lung cancer cell line (NSCLC) H596 was determined by using MTT colorimetric assay.; assay type: functional, cell-based; conditions: Homo sapiens

Row | SMILES | Metabolism [1] [µM/min/mg] | Selectivity ratio [2] | IC50 [3] [nM] | IC50 [4] [nM]
1 | COCC/N=C1\C=C(O)c2c(c(CO)c(C)n2C)C1=O | 0.1 |  |  | 
2 | Cc1c(CO)c2c(n1C)C(=O)C=C(N1CCC1)C2=O | 0.22 |  |  | 
3 | Cc1c(CO)c2c(n1C)C(=O)C=C(N(C)C)C2=O | 0.46 |  |  | 
4 | COC1=CC(=O)c2c(cc(C)n2C)C1=O | 5.31 | 1 |  | 
5 | CCOC(=O)c1c2c(n(C)c1C)C(=O)C=C(OC)C2=O | 14.3 |  |  | 
6 | Cc1c(COC(N)=O)c2c(n1C)C(=O)C=C(N1CC1)C2=O |  | 1.6 |  | 
7 | COC1=CC(=O)c2c(c(CO)c(C)n2C)C1=O | 1.25 | 1 |  | 
8 | Cc1c(CO)c2c(n1C)C(=O)C=C(N1CC1)C2=O | 3.35 | 510 |  | 
9 | Cc1c(CO)c2c(n1C)C(=O)C=C(N1CCOCC1)C2=O | 0.69 |  |  | 
10 | COC1=CC(=O)c2c(c(COC(N)=O)c(C)n2C)C1=O |  | 0.3 |  | 
11 | Cc1cc2c(n1C)C(=O)C=C(N1CC1)C2=O | 11.6 | > 26 |  | 
12 | Cc1c(CO)c2c(n1C)C(=O)C=C(CN1CC1)C2=O | 2.01 | > 220 | 110 | > 25000
13 | C/N=C1\C=C(O)c2c(c(CO)c(C)n2C)C1=O | 0.49 |  |  | 
14 | COC1=CC(=O)c2c(c(C=O)c(C)n2C)C1=O | 8.78 |  |  | 

— ChEMBL document CHEMBL1131641, “Indolequinone antitumor agents: relationship between quinone structure and rate of metabolism by recombinant human NQO1” (Bioorg Med Chem Lett, 1998)
